How the values were obtained:
myc-tagged-A53T-α-syn = format: cell-based; conditions: PC-12 cells after 1 μg/ml Dox induction; hederagenin 40 or 60 μM, α-hederin 12 or 24 μM
Description: (§1) Protein extraction and Western blots: Cells were harvested by RIPA lysis buffer (Cell Signaling Technologies, Beverly, Mass., USA), and with the final protein concentrations measured by using Bradford reagent (Bio-Rad, Hercules, Calif., USA). After electrophoresis for protein band separation, proteins were transferred to the nitrocellulose membrane which was blocked with 5% non-fat dried milk immediately after protein transfer. Corresponding primary antibodies, followed by the addition of HRP-conjugated secondary antibodies, were incubated with the protein membrane with constant shaking. Visualization of protein band pattern was performed by using the ECL Western Blotting Detection Reagents (Invitrogen, Paisley, Scotland). Band intensities were quantified by using the software, ImageJ (ImageJ 1.46r; National Institutes of Health, Bethesda, Md., USA).

[1] = system: α-synuclein oligomerization; assay: Bimolecular fluorescence complementation (BiFC) assay of α-synuclein oligomerization in HeLa cells; format: cell-based; conditions: for oligomerization of α-syn (GFP fluorescence intensity): transfected HeLa cells, hederagenin 40 or 80 μM, α-hederin 12 or 24 μM, 24 h
Description: Bimolecular Fluorescence Complementation (BiFC) Assay: Both (1) non-fluorescent GFP-N terminal (GFP-N-α-syn), or (2) non-fluorescent GFP-C terminal (GFP-C-α-syn) plasmids were generous gifts from Pamela J. McLean (Department of Neuroscience, Mayo Clinic Florida, Jacksonville, Fla., USA). HeLa cells transfected with both GFP-N-α-syn and GFP-C-α-syn plasmids were incubated at 37° C. for 4 h. Cells were then subjected to different concentration of hederagenin or α-hederin treatments for a further 24 h in a humidified incubator at […] (Outeiro, T. F. et al., PLoS One 2008, 3:e1867). Green fluorescent signal which indicates the reconstitution of complete GFP proteins was detected by flow analysis (BD FACSAria III, San Jose, Calif., USA).

[2] = system: EGFP-HTT 74 (mutant huntingtin); assay: Mutant huntingtin (EGFP-HTT 74) clearance in transfected PC-12 cells, Western blot; format: cell-based; conditions: EGFP-HTT 74 transfected PC-12 cells; hederagenin 40-80 μM, α-hederin 12-24 μM
Description: as §1, with “Visualization of protein band pattern was performed by using the ECL Western Blotting Detection Reagents (Invitrogen, Paisley, Scotland).” left out
Cells were then treated with either hederagenin or α-hederin for a further 24 h to determine the protein level of mutant huntingtin by Western blot analysis using an antibody against GFP (Ravikumar, B. et al., Nat Genet 2004, 36:585-595). On the other hand, ATG7 wild-type and ATG7-deficient MEF cells transfected with EGFP-HTT 74 were analyzed for the formation of huntingtin inclusion after 24 h of hederagenin or α-hederin treatment. Percentages of cells with cytoplasmic GFP-huntingtin (GFP-HTT74) inclusion formation were counted by the number of cells with GFP inclusions over the total number of GFP-positive cells in the same field under fluorescent microscopic analysis. […]

[3] = system: GFP-LC3 transfected Atg7+/+ and Atg7−/− MEFs; assay: GFP-LC3 puncta formation in ATG7 wild-type and ATG7 deficient MEFs; format: cell-based, mouse; conditions: α-hederin 12 or 24 μM, hederagenin 40, 60 or 80 μM, 24 h
Description: Immunocytochemistry and fluorescence microscopy: In brief, GFP-LC3 puncta formation was analyzed as described previously (Wu, A. G. et al. Int J Mol Sci 2013, 14:22618-22641). Firstly, cells were plated on top of coverslips inside a 6-well culture dish. After compounds treatments, cells were fixed with 4% paraformaldehyde for 20 min. FluorSave™ mounting media (Calbiochem, San Diego, Calif., USA) was used to mount the coverslips with cells before subjected to fluorescence microscopic analysis. The number of GFP-positive cells, and cells with GFP-LC3 puncta formation was examined and counted under the Nikon ECLIPSE 80i microscope by using 40× of magnification. In order to standardize the quantitation, the percentage of cells with autophagy induction was defined by counting the number of cells with punctate GFP-LC3 fluorescence in GFP-positive cells. A minimum of 1000 GFP-positive cells from 3 randomly selected fields were scored.

[4] = UHPLC/MS/MS measurement of hederagenin and α-hederin level in mice brain tissues; format: in vivo
Description: Whole mice brains were collected and weighted after sacrificed. Each brain tissue was put into 500 μl of NaCl solution and ultra-sonicated for 40 s to give the whole tissue homogenate. Each tube of homogenate was set to a final volume of 800 μl. […] The supernatant was collected and remaining precipitate was re-extracted with 200 μl of methanol. The collected supernatant was then combined and dried by using dry nitrogen blowing instrument. The residue was reconstituted with 200 μl of 30% acetonitrile, and then 10 μl of the aliquot was injected into the LC-MS/MS system (Su, F. L. et al., Chromatographia 2009, 69:207-213). […] The measurement of dopamine (DA), hederagenin and α-hederin level in mice brain tissues: Internal standard (IS, DHBA), DA, hederagenin and α-hederin level in the mouse brain, were quantified using UHPLC/MS/MS system which includes Agilent 1290 Infinity UHPLC, and Agilent 6460 Triple Quadrupole, equipped with an electrospray ionization interface used to generate positive ions for the determination of DA; negative ion mode for the measurement of hederagenin and α-hederin in mouse brains. The compounds in plasma samples were analyzed by using the Agilent Zorbax Eclipse Plus C-18 column with a particle size of 1.8 μm (flow rate: 0.35 mL/min). […] Data were analyzed by using Agilent MassHunter Workstation software B.01.03. […]

## CC1(C)CC[C@]2(C(=O)O)CC[C@]3(C)C(=CC[C@@H]4[C@@]5(C)CC[C@H](O)[C@@](C)(CO)[C@@H]5CC[C@]43C)[C@@H]2C1 [hederagenin]
myc-tagged-A53T-α-syn
  clearance of overexpressed mutant A53T α-syn: facilitate the clearance of the overexpressed mutant α-
[1]; BiFC assay, HeLa cells
  inhibition of α-syn oligomerization relative to α-hederin: more potent in the inhibition
[1]
  oligomerization of α-syn (GFP fluorescence intensity): inhibit the oligomerization of α-syn
[2]
  clearance of overexpressed huntingtin in PC-12 cells: facilitate the clearance of overexpressed huntingtin
[3]
  GFP-LC3-II puncta formation in ATG7-wild type MEFs: significantly increase the GFP-LC3-II puncta formation
[4]; C57BL/6, mouse, in vivo, po, 80 mg/kg
  level detected in the brain tissue: 3.39 nM

## C[C@@H]1O[C@@H](O[C@H]2[C@H](O[C@H]3CC[C@@]4(C)[C@@H](CC[C@]5(C)[C@@H]4CC=C4[C@@H]6CC(C)(C)CC[C@]6(C(=O)O)CC[C@]45C)[C@]3(C)CO)OC[C@H](O)[C@@H]2O)[C@H](O)[C@H](O)[C@H]1O [α-hederin]
myc-tagged-A53T-α-syn
  clearance of overexpressed mutant A53T α-syn: facilitate the clearance of the overexpressed mutant α-
[1]
  oligomerization of α-syn (GFP fluorescence intensity): inhibit the oligomerization of α-syn
[2]
  clearance of overexpressed huntingtin in PC-12 cells: facilitate the clearance of overexpressed huntingtin
[3]
  GFP-LC3-II puncta formation in ATG7-wild type MEFs: significantly increase the GFP-LC3-II puncta formation
[4]; mice with 80 mg/kg HH-EF′ treatment, oral
  level detected in the brain tissue: 2.98 nM

Source: patent US10493118B2, “Triterpenoid obtainable from hedera helix for treatment of neurodegenerative diseases” (Macau University of Science and Technology, priority 2016, dated 2019)
